{"source": "PubChem BioAssay AID1259407", "about": "(Chemical Carcinogenesis Research Information System (CCRIS), 2018)", "system": "CCRIS mutagenicity, Ames/micronucleus/aberration tests", "experiment": "CCRIS mutagenicity studies", "key": {"[1]": {"conditions": "Test System: AMES SALMONELLA TYPHIMURIUM, Strain/Indicator: TA98, Metabolic Activation: NONE, Method: PREINCUBATION"}, "[2]": {"conditions": "Test System: AMES SALMONELLA TYPHIMURIUM, Strain/Indicator: TA98, Metabolic Activation: RAT, LIVER, S-9, AROCLOR 1254, Method: PREINCUBATION"}, "[3]": {"conditions": "Test System: AMES SALMONELLA TYPHIMURIUM, Strain/Indicator: TA100, Metabolic Activation: NONE, Method: PREINCUBATION"}, "[4]": {"conditions": "Test System: AMES SALMONELLA TYPHIMURIUM, Strain/Indicator: TA100, Metabolic Activation: RAT, LIVER, S-9, AROCLOR 1254, Method: PREINCUBATION"}, "[5]": {"conditions": "Test System: AMES SALMONELLA TYPHIMURIUM, Strain/Indicator: TA98, Metabolic Activation: RAT, LIVER, S-9, PCB, Method: STANDARD PLATE"}, "[6]": {"conditions": "Test System: AMES SALMONELLA TYPHIMURIUM, Strain/Indicator: TA100, Metabolic Activation: RAT, LIVER, S-9, PCB, Method: STANDARD PLATE"}, "[7]": {"conditions": "Test System: AMES SALMONELLA TYPHIMURIUM, Strain/Indicator: TA98, Metabolic Activation: NONE, Method: STANDARD PLATE"}, "[8]": {"conditions": "Test System: AMES SALMONELLA TYPHIMURIUM, Strain/Indicator: TA100, Metabolic Activation: NONE, Method: STANDARD PLATE"}}, "note": "Active and inactive are the calls of the source. How the calls were made is not given here.", "data": [{"smiles": "CC(C)CC=O", "values": [{"measurement": "mutagenic call", "setting": "[1]", "result": "inactive; negative"}, {"measurement": "mutagenic call", "setting": "[2]", "result": "inactive; negative"}, {"measurement": "mutagenic call", "setting": "[3]", "result": "inactive; negative"}, {"measurement": "mutagenic call", "setting": "[4]", "result": "inactive; negative"}, {"measurement": "mutagenic call", "setting": "Test System: AMES SALMONELLA TYPHIMURIUM, Strain/Indicator: TA102, Metabolic Activation: NONE, Method: PREINCUBATION", "result": "inactive; negative"}, {"measurement": "mutagenic call", "setting": "Test System: AMES SALMONELLA TYPHIMURIUM, Strain/Indicator: TA102, Metabolic Activation: RAT, LIVER, S-9, AROCLOR 1254, Method: PREINCUBATION", "result": "inactive; negative"}]}, {"smiles": "c1ccc2c(c1)cnc1ccccc12", "values": [{"measurement": "mutagenic call", "setting": "[5]", "result": "active; positive"}, {"measurement": "mutagenic call", "setting": "[6]", "result": "active; positive"}]}, {"smiles": "C[C@@H]1NCCc2cc(O)c(O)cc21", "values": [{"measurement": "mutagenic call", "setting": "End Point: IN VITRO CHROMOSOMAL ABERRATIONS, Test System: CHL FIBROBLAST CELLS, Metabolic Activation: NONE", "result": "active; positive"}, {"measurement": "mutagenic call", "setting": "End Point: IN VITRO CHROMOSOMAL ABERRATIONS, Test System: CHL FIBROBLAST CELLS, Metabolic Activation: RAT, LIVER, S-9 (5%)", "result": "inactive; negative"}]}, {"smiles": "COc1nsc2c(N)cccc12", "values": [{"measurement": "mutagenic call", "setting": "Test System: AMES SALMONELLA TYPHIMURIUM, Strain/Indicator: TA98, Metabolic Activation: S-9, Method: STANDARD PLATE", "result": "active; positive"}]}, {"smiles": "Nc1nc2ccccc2[nH]1", "values": [{"measurement": "mutagenic call", "setting": "Test System: AMES SALMONELLA TYPHIMURIUM, Strain/Indicator: TA97, Metabolic Activation: HAMSTER, LIVER, S-9, AROCLOR 1254 (10%), Method: PREINCUBATION", "result": "inactive; negative"}, {"measurement": "mutagenic call", "setting": "Test System: AMES SALMONELLA TYPHIMURIUM, Strain/Indicator: TA97, Metabolic Activation: HAMSTER, LIVER, S-9, AROCLOR 1254 (30%), Method: PREINCUBATION", "result": "inactive; negative"}, {"measurement": "mutagenic call", "setting": "Test System: AMES SALMONELLA TYPHIMURIUM, Strain/Indicator: TA97, Metabolic Activation: NONE, Method: PREINCUBATION", "result": "inactive; negative"}, {"measurement": "mutagenic call", "setting": "Test System: AMES SALMONELLA TYPHIMURIUM, Strain/Indicator: TA97, Metabolic Activation: RAT, LIVER, S-9, AROCLOR 1254 (10%), Method: PREINCUBATION", "result": "inactive; negative"}, {"measurement": "mutagenic call", "setting": "Test System: AMES SALMONELLA TYPHIMURIUM, Strain/Indicator: TA97, Metabolic Activation: RAT, LIVER, S-9, AROCLOR 1254 (30%), Method: PREINCUBATION", "result": "inactive; negative"}, {"measurement": "mutagenic call", "setting": "Test System: AMES SALMONELLA TYPHIMURIUM, Strain/Indicator: TA98, Metabolic Activation: HAMSTER, LIVER, S-9, AROCLOR 1254 (10%), Method: PREINCUBATION", "result": "inactive; negative"}, {"measurement": "mutagenic call", "setting": "Test System: AMES SALMONELLA TYPHIMURIUM, Strain/Indicator: TA98, Metabolic Activation: HAMSTER, LIVER, S-9, AROCLOR 1254 (30%), Method: PREINCUBATION", "result": "inactive; negative"}, {"measurement": "mutagenic call", "setting": "[1]", "result": "inactive; negative"}, {"measurement": "mutagenic call", "setting": "Test System: AMES SALMONELLA TYPHIMURIUM, Strain/Indicator: TA98, Metabolic Activation: RAT, LIVER, S-9, AROCLOR 1254 (10 OR 30%), Method: PREINCUBATION", "result": "inactive; negative"}, {"measurement": "mutagenic call", "setting": "[2]", "result": "active; positive"}, {"measurement": "mutagenic call", "setting": "Test System: AMES SALMONELLA TYPHIMURIUM, Strain/Indicator: TA100, Metabolic Activation: HAMSTER, LIVER, S-9, AROCLOR 1254 (10%), Method: PREINCUBATION", "result": "inactive; negative"}, {"measurement": "mutagenic call", "setting": "Test System: AMES SALMONELLA TYPHIMURIUM, Strain/Indicator: TA100, Metabolic Activation: HAMSTER, LIVER, S-9, AROCLOR 1254 (30%), Method: PREINCUBATION", "result": "inactive; negative"}, {"measurement": "mutagenic call", "setting": "[3]", "result": "inactive; negative"}, {"measurement": "mutagenic call", "setting": "Test System: AMES SALMONELLA TYPHIMURIUM, Strain/Indicator: TA100, Metabolic Activation: RAT, LIVER, S-9, AROCLOR 1254 (5%), Method: PREINCUBATION", "result": "inactive; negative"}, {"measurement": "mutagenic call", "setting": "Test System: AMES SALMONELLA TYPHIMURIUM, Strain/Indicator: TA100, Metabolic Activation: RAT, LIVER, S-9, AROCLOR 1254 (10 OR 30%), Method: PREINCUBATION", "result": "inactive; negative"}, {"measurement": "mutagenic call", "setting": "[4]", "result": "inactive; negative"}, {"measurement": "mutagenic call", "setting": "Test System: AMES SALMONELLA TYPHIMURIUM, Strain/Indicator: TA1535, Metabolic Activation: HAMSTER, LIVER, S-9, AROCLOR 1254 (10%), Method: PREINCUBATION", "result": "inactive; negative"}, {"measurement": "mutagenic call", "setting": "Test System: AMES SALMONELLA TYPHIMURIUM, Strain/Indicator: TA1535, Metabolic Activation: HAMSTER, LIVER, S-9, AROCLOR 1254 (30%), Method: PREINCUBATION", "result": "inactive; negative"}, {"measurement": "mutagenic call", "setting": "Test System: AMES SALMONELLA TYPHIMURIUM, Strain/Indicator: TA1535, Metabolic Activation: NONE, Method: PREINCUBATION", "result": "inactive; negative"}, {"measurement": "mutagenic call", "setting": "Test System: AMES SALMONELLA TYPHIMURIUM, Strain/Indicator: TA1535, Metabolic Activation: RAT, LIVER, S-9, AROCLOR 1254 (10 OR 30%), Method: PREINCUBATION", "result": "inactive; negative"}, {"measurement": "mutagenic call", "setting": "Test System: AMES SALMONELLA TYPHIMURIUM, Strain/Indicator: TA1537, Metabolic Activation: HAMSTER, LIVER, S-9, AROCLOR 1254 (10%), Method: PREINCUBATION", "result": "inactive; negative"}, {"measurement": "mutagenic call", "setting": "Test System: AMES SALMONELLA TYPHIMURIUM, Strain/Indicator: TA1537, Metabolic Activation: HAMSTER, LIVER, S-9, AROCLOR 1254 (30%), Method: PREINCUBATION", "result": "inactive; negative"}, {"measurement": "mutagenic call", "setting": "Test System: AMES SALMONELLA TYPHIMURIUM, Strain/Indicator: TA1537, Metabolic Activation: NONE, Method: PREINCUBATION", "result": "inactive; negative"}, {"measurement": "mutagenic call", "setting": "Test System: AMES SALMONELLA TYPHIMURIUM, Strain/Indicator: TA1537, Metabolic Activation: RAT, LIVER, S-9, AROCLOR 1254 (10 OR 30%), Method: PREINCUBATION", "result": "inactive; negative"}]}, {"smiles": "CC(C)(Br)C(Br)CCl", "note": "(stereo unspecified)", "values": [{"measurement": "mutagenic call", "setting": "Test System: AMES SALMONELLA TYPHIMURIUM, Strain/Indicator: TA100, Metabolic Activation: RAT, LIVER, MICROSOMES, PHENOBARBITAL, Method: PREINCUBATION", "result": "inactive; negative"}, {"measurement": "mutagenic call", "setting": "Test System: AMES SALMONELLA TYPHIMURIUM, Strain/Indicator: TA100, Metabolic Activation: RAT, LIVER, MICROSOMES, Method: PREINCUBATION", "result": "inactive; negative"}]}, {"smiles": "BrCc1c2ccccc2c2ccc3cccc4ccc1c2c43", "values": [{"measurement": "mutagenic call", "setting": "[7]", "result": "active; positive"}, {"measurement": "mutagenic call", "setting": "[8]", "result": "active; positive"}]}, {"smiles": "c1cc2ccc3ccc4ccc5ccc6ccc1c1c2c3c4c5c61", "values": [{"measurement": "mutagenic call", "setting": "Test System: AMES SALMONELLA TYPHIMURIUM, Strain/Indicator: TA97, Metabolic Activation: NONE, Method: STANDARD PLATE", "result": "inactive; negative"}, {"measurement": "mutagenic call", "setting": "Test System: AMES SALMONELLA TYPHIMURIUM, Strain/Indicator: TA97, Metabolic Activation: RAT, LIVER, S-9, PCB, Method: STANDARD PLATE", "result": "active; positive"}, {"measurement": "mutagenic call", "setting": "[7]", "result": "inactive; negative"}, {"measurement": "mutagenic call", "setting": "Test System: AMES SALMONELLA TYPHIMURIUM, Strain/Indicator: TA98, Metabolic Activation: RAT, LIVER, S-9, AROCLOR 1254, Method: FLUCTUATION", "result": "active; positive"}, {"measurement": "mutagenic call", "setting": "Test System: AMES SALMONELLA TYPHIMURIUM, Strain/Indicator: TA98, Metabolic Activation: RAT, LIVER, S-9, AROCLOR 1254, Method: STANDARD PLATE", "result": "active; positive"}, {"measurement": "mutagenic call", "setting": "[5]", "result": "active; positive"}, {"measurement": "mutagenic call", "setting": "[8]", "result": "inactive; negative"}, {"measurement": "mutagenic call", "setting": "[6]", "result": "inactive; negative"}, {"measurement": "mutagenic call", "setting": "Test System: AMES SALMONELLA TYPHIMURIUM, Strain/Indicator: TA1537, Metabolic Activation: RAT, LIVER, S-9, AROCLOR 1254, Method: STANDARD PLATE", "result": "active; positive"}, {"measurement": "mutagenic call", "setting": "Test System: AMES SALMONELLA TYPHIMURIUM, Strain/Indicator: TA1538, Metabolic Activation: RAT, LIVER, S-9, AROCLOR 1254, Method: STANDARD PLATE", "result": "active; positive"}]}, {"smiles": "O=C[C@H](NC(=O)N(CCCl)N=O)[C@@H](O)[C@H](O)[C@H](O)CO", "values": [{"measurement": "mutagenic call", "setting": "Test System: CHINESE HAMSTER V-79, Strain/Indicator: V-79/6-THIOGUANINE, Metabolic Activation: NONE, Method: STANDARD PLATE", "result": "active; positive"}]}, {"smiles": "Cc1ccc(/C(C#N)=C\\C=C\\c2ccccc2[N+](=O)[O-])cc1", "values": [{"measurement": "mutagenic call", "setting": "Test System: AMES SALMONELLA TYPHIMURIUM, Strain/Indicator: TA97A, Metabolic Activation: NONE, Method: STANDARD PLATE", "result": "active; positive"}]}]}
